In assay [1] the test system is HCV GT1a(H77) replicon. The assay is described as follows: HCV replicon luciferase reporter assay, genotype 1a. The conditions noted are these: Hepatitis C virus, 72 h, HUH-7 cells, Renilla luciferase, 3 days incubation. The class given is cell-based, HCV genotype 1a. The source says:
A stable HCV GT1a(H77) replicon luciferase reporter cell line (Yanagi M, Purcell RH, Emerson S U, et al. Transcripts from a single full-length cDNA clone of hepatitis C virus are infectious when directly transfected into the liver of a chimpanzee. Proc Natl Acad Sci USA 1997; 94(16):8738-8743) was generated as described previously for the genotype 1b(Con1) replicon luciferase cell line. The replicon construct was modified by introducing mutations into the genes encoding the NS3 helicase domain (proline replaced by leucine at position 1496) and NS5A (serine to isoleucine at position 2204) to improve replication in cell culture.
(§1) HCV replicon luciferase assays were developed to monitor the inhibitory effects of compounds described in the disclosure on HCV genotypes 1a and 1b viral replication. HUH-7 cells, constitutively expressing the HCV replicon, were grown in Dulbecco's Modified Eagle Media (DMEM) (Gibco-BRL) containing 10% Fetal calf serum (FCS) (Sigma) and 1 mg/mL G418 (Gibco-BRL). Compounds were serially diluted 3 folds in DMSO for a twenty-point titration and subsequently transferred to sterile 384-well tissue-culture treated plates (Corning cat #3571). The plates were then seeded with 50 μL of cells at a density of 3.0×10^3 cells/well in DMEM containing 4% FCS (final DMSO concentration at 0.5%). After 3 days incubation at 37° C., cells were analyzed for Renilla Luciferase activity using the EnduRen as substrate (Promega cat #E6485). The EnduRen substrate was diluted in DMEM and then added to the plates to a final concentration of 7.5 μM. The plates were incubated for 2 hrs at 37° C. and then read immediately for 30 seconds with Viewlux Imager (PerkinElmer) using a luminescence program. To assess cytotoxicity of compounds, CC50 values were generated by multiplexing the EnduRen-containing plates with Cell Titer-Blue (Promega, cat #G8082). Cell-Titer Blue (3 μL) was added to each well and incubated for 8 hrs at 37° C. The fluorescence signal from each well was read, with an excitation wavelength at 525/10 nm and an emission wavelength of 598/10 nm, using the Viewlux Imager.
(§2) The EC50 values for compounds were calculated by using a four-parameter logistic equation: y=A+[…])/(1+((C/x)^D))), where A and B denotes minimal and maximal % inhibition, respectively, C is the EC50, D is the hill slope and x represents compound concentration.
In general terms: Replicon systems follow genome replication, usually without infectious particles.

In assay [2] the test system is HCV GT1b(Con1) replicon. The experiment in a line: HCV replicon luciferase reporter assay, genotype 1b. The class given is cell-based, HCV genotype 1b. To be noted: Hepatitis C virus, 72 h, HUH-7 cells, Renilla luciferase, 3 days incubation.
Excerpt: An HCV GT1b(Con1) replicon cell system was established as described by Lohmann V, Korner F, Koch J, Herian U, Theilmann L, Bartenschlager R., Science 285(5424):110-3 (1999) and modified to introduce a luciferase reporter (Krieger N, Lohmann V, and Bartenschlager R, J. Virol. 75(10):4614-4624 (2001)). cDNA encoding a humanized form of the Renilla luciferase gene, and a linker sequence fused directly to the 3′-end of the luciferase gene were introduced into the replicon construct using an Asc1 restriction site located in core, directly upstream of the neomycin marker gene. The adaptive mutation at position 1179 (serine to isoleucine) was also introduced (Blight K J, Kolykhalov, A A, Rice, C M, Science 290(5498):1972-1974). A stable cell line constitutively expressing this HCV replicon construct was generated by first linearizing plasmid DNAs with ScaI. RNA transcripts were synthesized in vitro using the T7 MegaScript transcription kit (Ambion, Austin, Tex.) according to manufacturer's directions. In vitro transcripts of the cDNA were transfected into the human hepatoma cell line, HUH-7. […] Resulting cell lines were characterized for positive and negative strand RNA production and protein production over time.
as §1, §2

pEC50: −log10 of the molar value. Read-outs that look alike come from different tables or passages of the source.

The pEC50 is −log10 of the EC50, conventionally taken in molar units. With `CC(C)Oc1ccc(-c2cc(O[C@@H]3C[C@H]4C(=O)N[C@]5(C(=O)NS(=O)(=O)C6(C)CC6)C[C@H]5/C=C\CC[C@H](C)C[C@@H](C)[C@H](NC(=O)OC(C)(C)C(F)(F)F)C(=O)N4C3)cc(-c3cncs3)n2)cc1` [Compound 1004, 1,1,1-trifluoro-2-methylpropan-2-yl ((2R,6S,7R,9S,13aS,14aR,16aS,Z)-2-((2-(4-isopropoxyphenyl)-6-(thiazol-5-yl)pyridin-4-yl)oxy)-7,9-dimethyl-14a-(((1-methylcyclopropyl)sulfonyl)carbamoyl)-5,16-dioxo-1,2,3,5,6,7,8,9,10,11,13a,14,14a,15,16,16a-hexadecahydrocyclopropa[e]pyrrolo[1,2-a][1,4]diazacyclopentadecin-6-yl)carbamate], the negative logarithm of the EC50 (pEC50) was 7.46 to 8.30 in assay [1] (read-out: LE_1a (EC50, range)) and 8.30 to 9.00 in assay [2] (read-out: LE_1b (EC50, range)).
With `CC(C)Oc1ccc(-c2cc(O[C@@H]3C[C@H]4C(=O)N[C@]5(C(=O)NS(=O)(=O)C6(C)CC6)C[C@H]5/C=C\CC[C@@H](C)C[C@@H](C)[C@H](NC(=O)OC(C)(C)C(F)(F)F)C(=O)N4C3)cc(-c3cccnc3)n2)cc1` [Compound 1005, 1,1,1-trifluoro-2-methylpropan-2-yl ((2R,6S,7R,9R,13aS,14aR,16aS,Z)-2-((6-(4-isopropoxyphenyl)-[2,3′-bipyridin]-4-yl)oxy)-7,9-dimethyl-14a-(((1-methylcyclopropyl)sulfonyl)carbamoyl)-5,16-dioxo-1,2,3,5,6,7,8,9,10,11,13a,14,14a,15,16,16a-hexadecahydrocyclopropa[e]pyrrolo[1,2-a][1,4]diazacyclopentadecin-6-yl)carbamate], the pEC50 in assay [1] (read-out: LE_1a (EC50)) was 8.83; in assay [1] (read-out: LE_1a (EC50, range)) it was 8.30 to 9.00; in assay [2] (read-out: LE_1b (EC50)), 8.77; in assay [2] (read-out: LE_1b (EC50, range)) it was 8.30 to 9.00.
Regarding `CC(C)Oc1ccc(-c2cc(O[C@@H]3C[C@H]4C(=O)N[C@]5(C(=O)NS(=O)(=O)C6(C)CC6)C[C@H]5/C=C\CC[C@H](C)C[C@@H](C)[C@H](NC(=O)OC(C)(C)C(F)(F)F)C(=O)N4C3)cc(-c3cccnc3)n2)cc1` [Compound 1006, 1,1,1-trifluoro-2-methylpropan-2-yl ((2R,6S,7R,9S,13aS,14aR,16aS,Z)-2-((6-(4-isopropoxyphenyl)-[2,3′-bipyridin]-4-yl)oxy)-7,9-dimethyl-14a-(((1-methylcyclopropyl)sulfonyl)carbamoyl)-5,16-dioxo-1,2,3,5,6,7,8,9,10,11,13a,14,14a,15,16,16a-hexadecahydrocyclopropa[e]pyrrolo[1,2-a][1,4]diazacyclopentadecin-6-yl)carbamate], the pEC50 is 7.46 to 8.30 in assay [1] (read-out: LE_1a (EC50, range)) and 7.46 to 8.30 in assay [2] (read-out: LE_1b (EC50, range)).
For `CC(C)Oc1ccc(-c2cc(O[C@@H]3C[C@H]4C(=O)N[C@]5(C(=O)NS(=O)(=O)C6(C)CC6)C[C@H]5/C=C\CC[C@@H](C)C[C@@H](C)[C@H](NC(=O)OC(C)(C)C(F)(F)F)C(=O)N4C3)cc(-c3nccs3)n2)cc1` [Compound 1007, 1,1,1-trifluoro-2-methylpropan-2-yl ((2R,6S,7R,9R,13aS,14aR,16aS,Z)-2-((2-(4-isopropoxyphenyl)-6-(thiazol-2-yl)pyridin-4-yl)oxy)-7,9-dimethyl-14a-(((1-methylcyclopropyl)sulfonyl)carbamoyl)-5,16-dioxo-1,2,3,5,6,7,8,9,10,11,13a,14,14a,15,16,16a-hexadecahydrocyclopropa[e]pyrrolo[1,2-a][1,4]diazacyclopentadecin-6-yl)carbamate], the pEC50 in assay [1] (read-out: LE_1a (EC50, range)) was 8.30 to 9.00; in assay [2] (read-out: LE_1b (EC50, range)), 8.30 to 9.00.
Turning to `CC(C)Oc1ccc(-c2cc(O[C@@H]3C[C@H]4C(=O)N[C@]5(C(=O)NS(=O)(=O)C6(C)CC6)C[C@H]5/C=C\CC[C@H](C)C[C@@H](C)[C@H](NC(=O)OC(C)(C)C(F)(F)F)C(=O)N4C3)cc(-c3nccs3)n2)cc1` [Compound 1008, 1,1,1-trifluoro-2-methylpropan-2-yl ((2R,6S,7R,9S,13aS,14aR,16aS,Z)-2-((2-(4-isopropoxyphenyl)-6-(thiazol-2-yl)pyridin-4-yl)oxy)-7,9-dimethyl-14a-(((1-methylcyclopropyl)sulfonyl)carbamoyl)-5,16-dioxo-1,2,3,5,6,7,8,9,10,11,13a,14,14a,15,16,16a-hexadecahydrocyclopropa[e]pyrrolo[1,2-a][1,4]diazacyclopentadecin-6-yl)carbamate], the negative-log EC50 (pEC50) in assay [1] (read-out: LE_1a (EC50, range)) was 7.46 to 8.30; in assay [2] (read-out: LE_1b (EC50, range)) it was 8.30 to 9.00.
On the same counts, the results for `CC(C)Oc1ccc(-c2cc(O[C@@H]3C[C@H]4C(=O)N[C@]5(C(=O)NS(=O)(=O)C6(C)CC6)C[C@H]5/C=C\CC[C@@H](C)C[C@@H](C)[C@H](NC(=O)OC(C)(C)C(F)(F)F)C(=O)N4C3)cc(-c3ccncc3)n2)cc1` [Compound 1009, 1,1,1-trifluoro-2-methylpropan-2-yl ((2R,6S,7R,9R,13aS,14aR,16aS,Z)-2-((6-(4-isopropoxyphenyl)-[2,4′-bipyridin]-4-yl)oxy)-7,9-dimethyl-14a-(((1-methylcyclopropyl)sulfonyl)carbamoyl)-5,16-dioxo-1,2,3,5,6,7,8,9,10,11,13a,14,14a,15,16,16a-hexadecahydrocyclopropa[e]pyrrolo[1,2-a][1,4]diazacyclopentadecin-6-yl)carbamate] are 8.30 to 9.00 and 8.30 to 9.00.
On the same counts, the results for `CC(C)Oc1ccc(-c2cc(O[C@@H]3C[C@H]4C(=O)N[C@]5(C(=O)NS(=O)(=O)C6(C)CC6)C[C@H]5/C=C\CC[C@H](C)C[C@@H](C)[C@H](NC(=O)OC(C)(C)C(F)(F)F)C(=O)N4C3)cc(-c3ccncc3)n2)cc1` [Compound 1010, 1,1,1-trifluoro-2-methylpropan-2-yl ((2R,6S,7R,9S,13aS,14aR,16aS,Z)-2-((6-(4-isopropoxyphenyl)-[2,4′-bipyridin]-4-yl)oxy)-7,9-dimethyl-14a-(((1-methylcyclopropyl)sulfonyl)carbamoyl)-5,16-dioxo-1,2,3,5,6,7,8,9,10,11,13a,14,14a,15,16,16a-hexadecahydrocyclopropa[e]pyrrolo[1,2-a][1,4]diazacyclopentadecin-6-yl)carbamate] are 7.46 to 8.30 and 7.46 to 8.30.
In the same order, the values of `COc1cccc(-c2cc(O[C@@H]3C[C@H]4C(=O)N[C@]5(C(=O)NS(=O)(=O)C6(C)CC6)C[C@H]5/C=C\CC[C@@H](C)C[C@@H](C)[C@H](NC(=O)OC(C)(C)C(F)(F)F)C(=O)N4C3)cc(-c3ccc(OC(C)C)cc3)n2)n1` [Compound 1011, 1,1,1-trifluoro-2-methylpropan-2-yl ((2R,6S,7R,9R,13aS,14aR,16aS,Z)-2-((6-(4-isopropoxyphenyl)-6′-methoxy-[2,2′-bipyridin]-4-yl)oxy)-7,9-dimethyl-14a-(((1-methylcyclopropyl)sulfonyl)carbamoyl)-5,16-dioxo-1,2,3,5,6,7,8,9,10,11,13a,14,14a,15,16,16a-hexadecahydrocyclopropa[e]pyrrolo[1,2-a][1,4]diazacyclopentadecin-6-yl)carbamate] are 8.30 to 9.00 and 8.30 to 9.00.

Values taken from patent publication US9334279B2, “Hepatitis C virus inhibitors” (BRISTOL-MYERS SQUIBB COMPANY, priority 2012, dated 2016).
